# Laboratory results reported in PMC11642070, “OCTN1 (SLC22A4) as a Target of Heavy Metals: Its Possible Role in Microplastic Threats” (International Journal of Molecular Sciences, 2024).
# Substitutions are numbered along the chain they refer to.
# Legend:
# [1] = target: T1, Cys-less OCTN1 (Homo sapiens, UniProt Q9H015, C113A/C136A/C236A/C270A/C374A/C50A/C81A); experiment: [14C]-TEA uptake by Cys-less OCTN1 mutant reconstituted in proteoliposomes; type: biochemical; conditions: 100 µM metal (250 µM CrCl2), 0.1 mM [14C]-TEA, 60 min
# T1 construct: made in house; host or cells: E. coli Rosetta(DE3)pLysS
# T1 sequence (Q9H015 1-551 C50A/C81A/C113A/C136A/C236A/C270A/C374A): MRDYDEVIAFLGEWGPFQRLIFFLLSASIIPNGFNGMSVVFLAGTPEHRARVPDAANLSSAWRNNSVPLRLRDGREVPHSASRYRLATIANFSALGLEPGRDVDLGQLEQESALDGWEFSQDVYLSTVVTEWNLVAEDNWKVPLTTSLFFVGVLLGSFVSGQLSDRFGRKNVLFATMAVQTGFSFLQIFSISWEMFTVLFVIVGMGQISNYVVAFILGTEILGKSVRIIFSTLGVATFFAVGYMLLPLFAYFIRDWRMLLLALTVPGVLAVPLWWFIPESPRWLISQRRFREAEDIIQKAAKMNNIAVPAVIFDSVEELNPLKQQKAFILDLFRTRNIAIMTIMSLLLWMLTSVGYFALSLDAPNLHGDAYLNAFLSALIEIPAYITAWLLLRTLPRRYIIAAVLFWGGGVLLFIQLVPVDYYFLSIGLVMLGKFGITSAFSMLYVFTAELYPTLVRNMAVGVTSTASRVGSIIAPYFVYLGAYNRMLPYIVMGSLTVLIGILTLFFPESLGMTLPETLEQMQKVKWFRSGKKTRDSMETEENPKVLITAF
# Protocol: The over-expression of OCTN1 wild type (WT) and C-less mutant proteins, as previously described in [17], has been performed in E. coli Rosetta(DE3)pLysS, as described in [60, 61].
# After desalting, the protein was reconstituted in liposomes. The composition of the initial mixture used for reconstitution was as follows: 50 µg of protein (or desalt buffer in liposomes without the incorporated protein), 80 µL of 10% C12E8, 120 µL of 10% egg yolk phospholipids with 25% cholesterol in the form of sonicated liposomes, 16 mM ATP disodium salt, and 5 mM BisTris/HCl (pH 7.5) in a final volume of 700 µL. The purified OCTN1 (WT or C-less mutant) was inserted in the liposomal membrane using the batch-wise technique. […]
# Proteoliposomes and liposomes (600 μL) were applied onto a Sephadex G-75 (Merck Life Science, Milan, Italy) column (0.7 cm diameter × 15 cm height) pre-equilibrated with 5 mM BIS-Tris/HCl (pH 8.0) and eluted with 600 μL of the same buffer. […] After the transport time, each sample was applied onto a Sephadex G-75 column (0.6 cm diameter × 8 cm height) and pre-equilibrated with 50 mM NaCl to remove the radioactivity not taken up. Proteoliposomes were eluted with 50 mM NaCl (1 mL), added to 3 mL Pico-Fluor Plus, vortexed, and counted. The radioactivity in the blank samples was used to subtract background radioactivity from the protein-associated one.
# [2] = target: T2, human OCTN1 (Homo sapiens, UniProt Q9H015); type: biochemical; conditions: 60 min; for IC50: OCTN1 WT proteoliposomes, 0.1 mM [14C]-TEA, read-out: IC50 (µM) on [14C]-TEA uptake
# T2 construct: made in house; host or cells: E. coli Rosetta(DE3)pLysS
# T2 sequence (Q9H015 1-551): T1 sequence (Q9H015 1-551 C50A/C81A/C113A/C136A/C236A/C270A/C374A) with A50C, A81C, A113C, A136C, A236C, A270C, A374C
# Protocol: After desalting, the protein was reconstituted in liposomes. The composition of the initial mixture used for reconstitution was as follows: 50 µg of protein (or desalt buffer in liposomes without the incorporated protein), 80 µL of 10% C12E8, 120 µL of 10% egg yolk phospholipids with 25% cholesterol in the form of sonicated liposomes, 16 mM ATP disodium salt, and 5 mM BisTris/HCl (pH 7.5) in a final volume of 700 µL. The purified OCTN1 (WT or C-less mutant) was inserted in the liposomal membrane using the batch-wise technique. This procedure used 0.5 g of Amberlite XAD-4 to remove the detergent from mixed micelles consisting of proteins, phospholipids and detergent at 23 °C for 40 min at 1200 rpm, as previously described.
# Proteoliposomes and liposomes (600 μL) were applied onto a Sephadex G-75 (Merck Life Science, Milan, Italy) column (0.7 cm diameter × 15 cm height) pre-equilibrated with 5 mM BIS-Tris/HCl (pH 8.0) and eluted with 600 μL of the same buffer. Samples of 100 μL each were prepared from the 600 μL pool. The transport was initiated by [^14C]-TEA or [^3H]-Ach at the concentration of 0.1 mM to the proteoliposome samples and stopped after 60 min according to the stop-inhibitor method. In the blank samples, the inhibitor (1 mM Hemicholinium-3) was added at time zero. After the transport time, each sample was applied onto a Sephadex G-75 column (0.6 cm diameter × 8 cm height) and pre-equilibrated with 50 mM NaCl to remove the radioactivity not taken up. Proteoliposomes were eluted with 50 mM NaCl (1 mL), added to 3 mL Pico-Fluor Plus, vortexed, and counted. The radioactivity in the blank samples was used to subtract background radioactivity from the protein-associated one.
# All experimental data were derived from the mean of three independent experiments, and results were expressed as means ± SD. IC50 values were derived from data fitting the IC50 equation using Grafit v 5.0.13 software (Erithacus Software (v 5.0.13), East Grinstead, UK).
# [3] = according to ATSDR; ref https://www.atsdr.cdc.gov/toxprofiles; cited from earlier work
SMILES,IC50 [2] [µM],Level of Toxicity [3],also measured
"[Cl][Cr][Cl] [CrCl2, Chromium (II) chloride]",170 ± 15,,"Inhibition of [14C]-TEA transport by Cys-less OCTN1 [1]: only exception; Effect of DTE and cysteine on the inhibition of [14C]-TEA transport by heavy metals ([2]; 100 µM metal (250 µM CrCl2), 5 mM DTE or Cys): only exception"
"[Cl][Hg][Cl] [HgCl2, Mercury (II) chloride]",121 ± 7,,
"[Cl-].[Cl-].[Zn+2] [ZnCl2, Zinc chloride]",57 ± 17,,
[Zn] [Zinc],,+,
[Cr] [Chromium],,+++,
"O=[N+]([O-])[O-].O=[N+]([O-])[O-].[Pb+2] [Pb(NO3)2, Lead nitrate]",90 ± 19,,
"[Cl][Cd][Cl] [CdCl2, Cadmium chloride]",56 ± 4,,
[Cd] [Cadmium],,+++,
